From patent US20260217767A1, “NOVEL A4B7 THIOETHER PEPTIDE DIMER ANTAGONISTS” (Protagonist Therapeutics, Inc., priority 2014, published 2026)
Where two headings read alike, the source gives them in different places. *1 amine or outer side, *2 acyl side, *3 side chain or, on linkers, in order; H or OH if unused. Where a SMILES comes first, the peptide text is derived from it. Bridges are numbered along the chain shown (N, C = ends). Roman numbers before positions name the chains, in order. [ ]: non-standard residue; d: D form. Phe(4-CF3) = N[C@@H](Cc1ccc(C(F)(F)F)cc1)C(=O)O; Diglycolyl = O=C(COCC(=O)[*:2])[*:1]; NMeR = CN[C@@H](CCCNC(=N)N)C(=O)O; X1 = O=C(c1ccccc1C[*:2])[*:1]; Pen = CC(C)(S)[C@H](N)C(=O)O

Molecular target: T1, RPMI 8866 cells (Homo sapiens, UniProt P13612+P26010)
T1 sequence (P13612 34-1032): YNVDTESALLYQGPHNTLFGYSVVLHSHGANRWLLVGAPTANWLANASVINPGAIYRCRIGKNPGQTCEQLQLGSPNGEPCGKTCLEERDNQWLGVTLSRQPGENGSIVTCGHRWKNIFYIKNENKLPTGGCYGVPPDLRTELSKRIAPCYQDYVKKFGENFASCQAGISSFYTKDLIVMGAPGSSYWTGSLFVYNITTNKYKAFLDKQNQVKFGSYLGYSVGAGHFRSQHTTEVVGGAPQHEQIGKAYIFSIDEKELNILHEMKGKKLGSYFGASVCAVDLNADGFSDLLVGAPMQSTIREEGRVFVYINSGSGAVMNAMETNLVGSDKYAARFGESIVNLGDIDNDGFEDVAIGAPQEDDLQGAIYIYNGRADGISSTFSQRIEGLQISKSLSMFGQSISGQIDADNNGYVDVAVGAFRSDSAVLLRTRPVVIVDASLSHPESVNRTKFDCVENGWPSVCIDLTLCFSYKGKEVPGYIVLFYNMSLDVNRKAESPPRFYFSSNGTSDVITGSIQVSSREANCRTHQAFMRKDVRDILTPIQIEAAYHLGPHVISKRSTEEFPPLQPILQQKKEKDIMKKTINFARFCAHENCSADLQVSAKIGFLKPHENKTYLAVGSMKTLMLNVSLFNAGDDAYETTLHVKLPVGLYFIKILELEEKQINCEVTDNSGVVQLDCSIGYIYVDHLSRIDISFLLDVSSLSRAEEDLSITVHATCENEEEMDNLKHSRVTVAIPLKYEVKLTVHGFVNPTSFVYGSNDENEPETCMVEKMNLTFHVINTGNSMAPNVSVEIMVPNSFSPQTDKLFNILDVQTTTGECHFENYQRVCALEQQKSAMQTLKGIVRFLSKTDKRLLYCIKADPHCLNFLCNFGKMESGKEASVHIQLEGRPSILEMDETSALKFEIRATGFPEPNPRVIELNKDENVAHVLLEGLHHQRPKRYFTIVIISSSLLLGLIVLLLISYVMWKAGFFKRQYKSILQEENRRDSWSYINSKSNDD
T1 sequence (P26010 20-798): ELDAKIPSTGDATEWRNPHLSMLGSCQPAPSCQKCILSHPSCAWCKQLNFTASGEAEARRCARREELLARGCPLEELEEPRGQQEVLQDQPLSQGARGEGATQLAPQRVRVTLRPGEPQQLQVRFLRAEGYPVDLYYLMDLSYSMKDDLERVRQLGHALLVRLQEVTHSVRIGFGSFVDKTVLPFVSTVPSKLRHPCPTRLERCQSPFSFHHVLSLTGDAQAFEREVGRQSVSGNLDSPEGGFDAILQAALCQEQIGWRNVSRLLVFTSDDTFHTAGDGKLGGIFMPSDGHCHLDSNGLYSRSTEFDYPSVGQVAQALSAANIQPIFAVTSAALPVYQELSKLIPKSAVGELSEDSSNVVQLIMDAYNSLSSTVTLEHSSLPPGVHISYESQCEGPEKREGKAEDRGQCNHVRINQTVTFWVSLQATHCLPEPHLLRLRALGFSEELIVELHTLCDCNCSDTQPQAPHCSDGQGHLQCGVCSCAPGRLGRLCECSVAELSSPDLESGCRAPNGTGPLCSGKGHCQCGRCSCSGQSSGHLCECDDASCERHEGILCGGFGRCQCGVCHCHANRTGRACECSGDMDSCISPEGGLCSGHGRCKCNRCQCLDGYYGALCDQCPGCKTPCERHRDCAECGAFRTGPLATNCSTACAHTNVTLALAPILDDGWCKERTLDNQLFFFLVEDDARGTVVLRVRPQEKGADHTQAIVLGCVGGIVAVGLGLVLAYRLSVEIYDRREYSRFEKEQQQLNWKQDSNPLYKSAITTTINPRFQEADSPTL
Assay: α4β7-MAdCAM Cell Adhesion Assay
Format: cell-based
Settings: read-out: Cell-Adhesion A4B7
Method in brief: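 RPMI 8866 cells (200,000/well) in DMEM with 1 mM MnCl2 and 0.1% BSA were allowed to adhere 30-45 min at 37° C to plates coated with rh MAdCAM-1/Fc (200 ng/well) in presence of serially diluted peptide. After washing, bound cells quantified by MTT, absorbance 570 nm, cell-free background subtracted.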

[1] = thioether monomer peptides, Table 6
[2] = thioether peptide dimers, Table 7

Compound	IC50 [1]	IC50 [2]
CC(C)C[C@@H]1NC(=O)[C@H]([C@@H](C)O)NC(=O)[C@H](CC(=O)O)NC(=O)[C@H](CO)NC(=O)[C@H](CCCNC(=N)N)N(C)C(=O)c2ccccc2CSC(C)(C)[C@@H](C(=O)N[C@@H](Cc2c[nH]c3ccccc23)C(=O)N[C@@H](CCC(=O)O)C(=O)N[C@@H](CN)C(N)=O)NC1=O [compound 92] (HELM PEPTIDE1{[meR].S.D.T.L.[Pen].W.E.[NC[C@H](N[*:1])C(=O)[*:2]].[am]}|CHEM1{[O=C(c1ccccc1C[*:2])[*:1]]}$PEPTIDE1,CHEM1,1:R1-1:R1|PEPTIDE1,CHEM1,6:R3-1:R2$$$V2.0)	25 to 100 nM	–
CC(=O)NCCCC[C@@H](NC(=O)[C@@H](CCC(=O)O)NC(=O)[C@H](Cc1ccc(O)cc1)NC(=O)[C@H]1NC(=O)[C@H](CC(C)C)NC(=O)[C@H]([C@@H](C)O)NC(=O)[C@H](CC(=O)O)NC(=O)[C@H](CO)NC(=O)[C@H](CCCNC(=N)N)N(C)C(=O)c2ccccc2CSC1(C)C)C(N)=O [compound 91] (HELM PEPTIDE1{[meR].S.D.T.L.[Pen].Y.[dE].[dK].[am]}|PEPTIDE2{[ac]}|CHEM1{[O=C(c1ccccc1C[*:2])[*:1]]}$PEPTIDE1,PEPTIDE2,9:R3-1:R2|PEPTIDE1,CHEM1,1:R1-1:R1|PEPTIDE1,CHEM1,6:R3-1:R2$$$V2.0)	100 to 1000 nM	–
CC(C)C[C@@H]1NC(=O)[C@H]([C@@H](C)O)NC(=O)[C@H](CC(=O)O)NC(=O)[C@H](CO)NC(=O)[C@H](CCCNC(=N)N)N(C)C(=O)c2ccccc2CSC(C)(C)[C@@H](C(=O)N[C@@H](Cc2ccccc2)C(=O)N[C@H](CCC(=O)O)C(=O)N[C@H](CCCCNC(=O)COCC(=O)NCCCC[C@@H](NC(=O)[C@@H](CCC(=O)O)NC(=O)[C@H](Cc2ccccc2)NC(=O)[C@H]2NC(=O)[C@H](CC(C)C)NC(=O)[C@H]([C@@H](C)O)NC(=O)[C@H](CC(=O)O)NC(=O)[C@H](CO)NC(=O)[C@H](CCCNC(=N)N)N(C)C(=O)c3ccccc3CSC2(C)C)C(=O)O)C(=O)O)NC1=O [compound 204] (I: [NMeR]SDTL[Pen]F[dE][dK]-OH / II: [NMeR]SDTL[Pen]F[dE][dK]-OH; linker I:9-II:9 via Diglycolyl; linker I:N-I:6, II:N-II:6 via X1)	–	< 25 nM
CC(C)C[C@@H]1NC(=O)[C@H]([C@@H](C)O)NC(=O)[C@H](CC(=O)O)NC(=O)[C@H](CO)NC(=O)[C@H](CCCNC(=N)N)N(C)C(=O)c2ccccc2CSC(C)(C)[C@@H](C(=O)N[C@@H](Cc2ccc(C(F)(F)F)cc2)C(=O)N[C@@H](CCC(=O)O)C(=O)N[C@H](CCCCNC(=O)COCC(=O)NCCCC[C@@H](NC(=O)[C@H](CCC(=O)O)NC(=O)[C@H](Cc2ccc(C(F)(F)F)cc2)NC(=O)[C@H]2NC(=O)[C@H](CC(C)C)NC(=O)[C@H]([C@@H](C)O)NC(=O)[C@H](CC(=O)O)NC(=O)[C@H](CO)NC(=O)[C@H](CCCNC(=N)N)N(C)C(=O)c3ccccc3CSC2(C)C)C(N)=O)C(N)=O)NC1=O [compound 166] (I: [NMeR]SDTL[Pen][Phe(4-CF3)]E[dK]-NH2 / II: [NMeR]SDTL[Pen][Phe(4-CF3)]E[dK]-NH2; linker I:9-II:9 via Diglycolyl; linker I:N-I:6, II:N-II:6 via X1)	–	< 25 nM
CC(C)C[C@@H]1NC(=O)[C@H]([C@@H](C)O)NC(=O)[C@H](CC(=O)O)NC(=O)[C@H](CO)NC(=O)[C@H](CCCNC(=N)N)N(C)C(=O)c2ccccc2CSC(C)(C)[C@@H](C(=O)N[C@@H](Cc2c[nH]c3ccccc23)C(=O)N[C@H](CCC(=O)O)C(=O)N[C@H](Cc2ccc(O)cc2)C(N)=O)NC1=O [compound 110] (HELM PEPTIDE1{[meR].S.D.T.L.[Pen].W.[dE].[dY].[am]}|CHEM1{[O=C(c1ccccc1C[*:2])[*:1]]}$PEPTIDE1,CHEM1,1:R1-1:R1|PEPTIDE1,CHEM1,6:R3-1:R2$$$V2.0)	25 to 100 nM	–
